Experimental data published in patent publication US4933347A, “Diamidines and bis(imidazolines) for the treatment of and prophylaxis against pneumocystis carinii pneumonia” (University of North Carolina at Chapel Hill, priority 1988, dated 1990).

What was measured:
[1] = system: Pneumocystis carinii; conditions: in vivo; cited from earlier work
[2] = system: Pneumocystis carinii; assay: Treatment of Pneumocystis carinii pneumonia in Sprague-Dawley rats (extent of disease by histologic score); type: in vivo, male Sprague-Dawley rats; conditions: for Extent of Disease by Histologic Score: number of animals with score 2: 5-10% lung involved or small foci of infection
[3] = Toxicity of amidines in rats (standard laboratory procedure); type: in vivo; conditions: dose as in value; else not given in Table XIII (10 mg/kg test dose)
[4] = intramuscular and intravenous routes; cited from earlier work

Structure (SMILES) | Known effectiveness against Pneumocystis carinii pneumonia [1] | Extent of Disease by Histologic Score: number of animals with score 0.5 ([2]; 0.1 mg/kg, 0.5 = <10 cysts found per 2 sections) | Extent of Disease by Histologic Score: number of animals with score 1 ([2]; 0.1 mg/kg, 1 = scattered cysts, <5% of lung involved) | Extent of Disease by Histologic Score: number of animals with score 2 ([2]; 0.1 mg/kg, 2 = scattered cysts) | Extent of Disease by Histologic Score: number of animals with score 3 ([2]; 0.1 mg/kg, 3 = scattered cysts, 10-50% of lung involved) | Extent of Disease by Histologic Score: number of animals with score 4 ([2]; 0.1 mg/kg, 4 = >50% of lung involved) | Extent of Disease by Histologic Score: number of animals with score 0.5 ([2]; 1 mg/kg, 0.5 = <10 cysts found per 2 sections) | Extent of Disease by Histologic Score: number of animals with score 1 ([2]; 1 mg/kg, 1 = scattered cysts, <5% of lung involved) | Extent of Disease by Histologic Score: number of animals with score 2 ([2]; 1 mg/kg, 2 = scattered cysts) | Extent of Disease by Histologic Score: number of animals with score 3 ([2]; 1 mg/kg, 3 = scattered cysts, 10-50% of lung involved) | Extent of Disease by Histologic Score: number of animals with score 4 ([2]; 1 mg/kg, 4 = >50% of lung involved) | Extent of Disease by Histologic Score: number of animals with score 4 ([2]; 10 mg/kg i.v. daily, 14 days, 4 = >50% of lung involved with many intense areas of focal infection) | Extent of disease by histologic score (combined): number of animals in scoring group 0.5 ([2]; Table XII composite, 10 mg/kg, 0.5 = <10 cysts found per 2 sections) | Extent of disease by histologic score (combined): number of animals in scoring group 1 ([2]; Table XII composite, 10 mg/kg, 1 = scattered cysts, <5% of lung involved) | Extent of disease by histologic score (combined): number of animals in scoring group 2 ([2]; Table XII composite, 10 mg/kg, 2 = scattered cysts, 5-10% of lung involved) | Extent of disease by histologic score (combined): number of animals in scoring group 3 ([2]; Table XII composite, 10 mg/kg, 3 = scattered cysts, 10-50% of lung involved) | Extent of disease by histologic score (combined): number of animals in scoring group 4 ([2]; Table XII composite, 10 mg/kg, 4 = >50% of lung involved) | Toxicity of amidines: Effect [3] | Side effects / toxicity in patients [4]
N=C(N)c1ccc(OCCCCCOc2ccc(C(=N)N)cc2)cc1 [Example 12, Pentamidine, reference compound] | effective in the treatment of, or prophylaxis against Pneumocystis carinii pneumonia | 0 animals | 0 animals | 0 animals | 7 animals | 5 animals | 1 animals | 0 animals | 3 animals | 5 animals | 3 animals | 0 animals | 20 animals | 26 animals | 12 animals | 2 animals | 0 animals | Some hypotension, edematous tails | –
N=C(N)c1ccc(OCCCCCOc2ccc(C(=N)N)cc2)cc1 [pentamidine isethionate] | – | – | – | – | – | – | – | – | – | – | – | – | – | – | – | – | – | – | Some fatalities have been attributed to severe hypotension, hypoglycemia, and cardiac arrhythmias
